# Reference: patent US4668677A, “4-phenylphthalazine derivatives, their preparation and their use as pharmaceuticals” (Mitsubishi Chemical Industries Limited, priority 1984, dated 1987)
# How the values were obtained:
# [1] = in vivo; details: rat, po, rats
# [2] = system: mice; experiment: Anti-thrombotic activity: arachidonic acid-induced mortality in mice; assay type: in vivo, mouse (male ICR-JCL strain); details: for Survival time of dead mice: arachidonic acid 100 mg/Kg i.v.; for Mortality: arachidonic acid 100 mg/Kg i.v. after 1 hour
# Protocol: (§1) Male ICR-JCL strain mice with an average body weight of about 25 g and male New Zealand White rabbits with an average body weight of about 3 Kg were used.
# Where mice were used as experimental animals, a suspension of the test compound indicated in Table 3 in a 1% tragacanth aqueous solution was orally administered to animals at 20 ml/Kg. One hour after the administration, an arachidonic acid (PL-biochemical Co., Inc.) solution dissolved in a 0.1M sodium carbonate aqueous solution was intravenously given at 100 mg/Kg. Evaluation of activity was effected with the time from the administration of arachidonic acid up to the death of animals as well as mortality.
# [3] = system: rabbits; experiment: Anti-thrombotic activity: arachidonic acid-induced mortality in rabbits; assay type: in vivo, rabbit (male New Zealand White)
# Protocol: as §1
# Where rabbits were used as experimental animals, a suspension of the test compound in a 1% tragacanth aqueous solution was orally administered to animals at 5 ml/Kg. Two hours after the administration, an arachidonic acid solution dissolved in a 0.1M potassium carbonate solution was injected into pinna vein at 1.4 mg/Kg.
# Evaluation of activity was effected with mortality at the time when arachidonic acid given. If survived at the first administration of arachidonic acid, arachidonic acid was administered after 6 hours, 24 hours, 48 hours and 72 hours from the administration of the test compound, respectively, and mortality was determined in respective cases.
# [4] = system: PGI2-like substance in vessel walls; experiment: Influence on production of PGI2-like substance in vessel walls (ADP aggregation with carotid artery ring); assay type: in vivo, rat (male Wistar-ST strain); details: 1 hour, 10 μM ADP
# Protocol: Male Wistar-ST strain rats with an average weight of about 250 g were used as experimental animals. After fasted for 18 hours, 6.3 ml of blood sample were obtained from corotid artery and immediately thereafter 0.7 ml of an anticoagulant (3.8% sodium citrate) was added and the sample was centrifuged at 200×g over 15 minutes to take platelet-rich plasma (PRP). The same procedures as above were carried out, using 5 to 6 rats, whereby 5-6 ml as normal PRP were stored and employed.
# Reference aggregation values were determined by pouring 1 ml each of stored PRP into plastic test tubes, incubating them at 22° C. for 10 minutes and then determining aggregation rate. As an aggregation inducing agent, one employed 10 μM ADP (available from Sigma Co., Inc.)
# A suspension of the compound of this invention or aspirin in a 1% aqueous solution of tragacanth was orally given to animals. After 1 hour, 5 mg of carotid artery were cut out in a ring shape and placed into a plastic test tube together with 1 ml of stored PRP. After incubated at 22° C. for 10 minutes, aggregation rate was determined.
# Also, non-medicated groups were similarly treated and aggregation rate was determined.
# Determination of blood platelet aggregation rate was made by means of an aggregometer.
# [5] = system: carotid artery; experiment: Action on blood flow volume in carotid artery; assay type: in vivo, rabbit (male New Zealand White)
# Protocol: (§2) Male New Zealand White rabbits (body weight of 2.8 Kg to 3.5 Kg) were used and anesthetized with pentobarbital sodium. Blood flow volumes in the carotid artery and femoral artery were measured and recorded via a non-blood observing type of a probe for measuring blood flow volume. Also, blood pressure in femoral artery was simultaneously measured and recorded with measurement of blood flow.
# (§3) The compound of this invention was dissolved in an aqueous solution containing 1% tartaric acid and 1% dimethylacetamide, while papaverine hydrochloride dissolved in 0.9% physiological saline. These test compounds were intravenously given through a residual polyethylene tube within femoral vein.
# [6] = system: femoral artery; experiment: Action on blood flow volume in femoral artery; assay type: in vivo, rabbit (male New Zealand White)
# Protocol: as §2, §3
# [7] = system: femoral artery; experiment: Action on blood pressure in femoral artery; assay type: in vivo, rabbit (male New Zealand White)
# Protocol: as §2, §3
structure (smiles),measurement,setting,value
"CC(C)(C)CNc1nnc(-c2ccccc2)c2ccccc12 [Compound 1, 1-neopentylamino-4-phenylphthalazine]",LD50,[1],> 8000 mg/kg
same,Survival time of dead mice,[2]; 30 mg/Kg oral,101 ± 11 s
same,Mortality,[2]; 30 mg/Kg oral,75%
same,Survival time of dead mice,[2]; 100 mg/Kg oral,108 ± 11 s
same,Mortality,[2]; 100 mg/Kg oral,75%
same,Mortality,[2]; 300 mg/Kg oral,0%
same,Mortality (number of rabbits),"[3]; 10 mg/Kg oral, 2 hrs. after administration, of 4 rabbits",1
same,Mortality (number of rabbits),"[3]; 10 mg/Kg oral, 6 hrs. after administration, of 4 rabbits",2
same,Mortality (number of rabbits),"[3]; 10 mg/Kg oral, 24 hrs. after administration, of 4 rabbits",1
same,Mortality (number of rabbits),"[3]; 30 mg/Kg oral, 24 hrs. after administration, of 8 (Compound 1) or 4 rabbits",3
same,Mortality (number of rabbits),"[3]; 30 mg/Kg oral, 48 hrs. after administration, of 8 (Compound 1) or 4 rabbits",1
same,Mortality (number of rabbits),"[3]; 30 mg/Kg oral, 72 hrs. after administration, of 8 rabbits",4
same,Aggregation rate with ADP when carotid artery ring added,[4]; 3 mg/Kg oral,2.7%
same,Aggregation rate with ADP when carotid artery ring added,[4]; 10 mg/Kg oral,17.7%
same,Aggregation rate with ADP when carotid artery ring added,[4]; 30 mg/Kg oral,10.0%
same,"Blood flow volume in carotid artery, A: Before administration",[5]; 0.01 mg/Kg i.v.,15.5 mL/min
same,"Blood flow volume in carotid artery, B: After administration",[5]; 0.01 mg/Kg i.v.,21.9 mL/min
same,"Blood flow volume in carotid artery, C: Increase degree",[5]; 0.01 mg/Kg i.v.,6.3 mL/min
same,"Blood flow volume in carotid artery, D: Increase rate",[5]; 0.01 mg/Kg i.v.,40.8%
same,"Blood flow volume in carotid artery, A: Before administration",[5]; 0.05 mg/Kg i.v.,14.5 mL/min
same,"Blood flow volume in carotid artery, B: After administration",[5]; 0.05 mg/Kg i.v.,22.7 mL/min
same,"Blood flow volume in carotid artery, C: Increase degree",[5]; 0.05 mg/Kg i.v.,8.1 mL/min
same,"Blood flow volume in carotid artery, D: Increase rate",[5]; 0.05 mg/Kg i.v.,53.7%
same,"Blood flow volume in carotid artery, A: Before administration",[5]; 0.1 mg/Kg i.v.,15.4 mL/min
same,"Blood flow volume in carotid artery, B: After administration",[5]; 0.1 mg/Kg i.v.,26.9 mL/min
same,"Blood flow volume in carotid artery, C: Increase degree",[5]; 0.1 mg/Kg i.v.,11.5 mL/min
same,"Blood flow volume in carotid artery, D: Increase rate",[5]; 0.1 mg/Kg i.v.,74.2%
same,"Blood flow volume in carotid artery, A: Before administration",[5]; 0.5 mg/Kg i.v.,17.3 mL/min
same,"Blood flow volume in carotid artery, B: After administration",[5]; 0.5 mg/Kg i.v.,35.1 mL/min
same,"Blood flow volume in carotid artery, C: Increase degree",[5]; 0.5 mg/Kg i.v.,17.8 mL/min
same,"Blood flow volume in carotid artery, D: Increase rate",[5]; 0.5 mg/Kg i.v.,109.7%
same,"Blood flow volume in femoral artery, A: Before administration",[6]; 0.01 mg/Kg i.v.,19.0 mL/min
same,"Blood flow volume in femoral artery, B: After administration",[6]; 0.01 mg/Kg i.v.,22.1 mL/min
same,"Blood flow volume in femoral artery, C: Increase degree",[6]; 0.01 mg/kg i.v.,3.1 mL/min
same,"Blood flow volume in femoral artery, D: Increase rate",[6]; 0.01 mg/kg i.v.,9.9%
same,"Blood flow volume in femoral artery, A: Before administration",[6]; 0.05 mg/Kg i.v.,18.5 mL/min
same,"Blood flow volume in femoral artery, B: After administration",[6]; 0.05 mg/Kg i.v.,24.3 mL/min
same,"Blood flow volume in femoral artery, C: Increase degree",[6]; 0.05 mg/kg i.v.,5.8 mL/min
same,"Blood flow volume in femoral artery, D: Increase rate",[6]; 0.05 mg/kg i.v.,28.2%
same,"Blood flow volume in femoral artery, A: Before administration",[6]; 0.1 mg/Kg i.v.,18.5 mL/min
same,"Blood flow volume in femoral artery, B: After administration",[6]; 0.1 mg/Kg i.v.,27.8 mL/min
same,"Blood flow volume in femoral artery, C: Increase degree",[6]; 0.1 mg/kg i.v.,9.3 mL/min
same,"Blood flow volume in femoral artery, D: Increase rate",[6]; 0.1 mg/kg i.v.,65.2%
same,"Blood flow volume in femoral artery, A: Before administration",[6]; 0.5 mg/Kg i.v.,19.5 mL/min
same,"Blood flow volume in femoral artery, B: After administration",[6]; 0.5 mg/Kg i.v.,28.2 mL/min
same,"Blood flow volume in femoral artery, C: Increase degree",[6]; 0.5 mg/kg i.v.,8.7 mL/min
same,"Blood flow volume in femoral artery, D: Increase rate",[6]; 0.5 mg/kg i.v.,55.3%
same,"Blood pressure in femoral artery, A: Before administration",[7]; 0.01 mg/kg i.v.,96.0 mmHg
same,"Blood pressure in femoral artery, B: After administration",[7]; 0.01 mg/kg i.v.,92.3 mmHg
same,"Blood pressure in femoral artery, E: Lowering degree",[7]; 0.01 mg/kg i.v.,3.7 mmHg
same,"Blood pressure in femoral artery, F: Lowering rate",[7]; 0.01 mg/kg i.v.,3.8%
same,"Blood pressure in femoral artery, A: Before administration",[7]; 0.05 mg/kg i.v.,91.7 mmHg
same,"Blood pressure in femoral artery, B: After administration",[7]; 0.05 mg/kg i.v.,81.7 mmHg
same,"Blood pressure in femoral artery, E: Lowering degree",[7]; 0.05 mg/kg i.v.,10.0 mmHg
same,"Blood pressure in femoral artery, F: Lowering rate",[7]; 0.05 mg/kg i.v.,10.9%
same,"Blood pressure in femoral artery, A: Before administration",[7]; 0.1 mg/kg i.v.,90.0 mmHg
same,"Blood pressure in femoral artery, B: After administration",[7]; 0.1 mg/kg i.v.,81.7 mmHg
same,"Blood pressure in femoral artery, E: Lowering degree",[7]; 0.1 mg/kg i.v.,8.3 mmHg
same,"Blood pressure in femoral artery, F: Lowering rate",[7]; 0.1 mg/kg i.v.,8.8%
same,"Blood pressure in femoral artery, A: Before administration",[7]; 0.5 mg/kg i.v.,86.7 mmHg
same,"Blood pressure in femoral artery, B: After administration",[7]; 0.5 mg/kg i.v.,63.2 mmHg
same,"Blood pressure in femoral artery, E: Lowering degree",[7]; 0.5 mg/kg i.v.,23.5 mmHg
same,"Blood pressure in femoral artery, F: Lowering rate",[7]; 0.5 mg/kg i.v.,30.1%
